Assay results: US10517862B2, “Fused heterocyclic compound derivative and application thereof” (NHWA PHARMA. CORPORATION, priority 2015, dated 2019)

Key:
5HT1A receptor = target: T1, 5HT1A receptor (Rattus norvegicus, UniProt P19327); test: 5HT1A receptor binding assay (3H-8-OH-DPAT, rat striatum membrane); conditions: for affinity with 5HT1A (in words): summary of in vitro assay; for inhibition at 10 µM: test compound final concentration 10^−5 M, 3H-8-OH-DPAT, rat striatum membrane, read-out: 5HT1A Inhibition rate (%)
T1 construct: Rats were decapitated on ice; from tissue; host or cells: rat brain striatum
T1 sequence (P19327 1-422): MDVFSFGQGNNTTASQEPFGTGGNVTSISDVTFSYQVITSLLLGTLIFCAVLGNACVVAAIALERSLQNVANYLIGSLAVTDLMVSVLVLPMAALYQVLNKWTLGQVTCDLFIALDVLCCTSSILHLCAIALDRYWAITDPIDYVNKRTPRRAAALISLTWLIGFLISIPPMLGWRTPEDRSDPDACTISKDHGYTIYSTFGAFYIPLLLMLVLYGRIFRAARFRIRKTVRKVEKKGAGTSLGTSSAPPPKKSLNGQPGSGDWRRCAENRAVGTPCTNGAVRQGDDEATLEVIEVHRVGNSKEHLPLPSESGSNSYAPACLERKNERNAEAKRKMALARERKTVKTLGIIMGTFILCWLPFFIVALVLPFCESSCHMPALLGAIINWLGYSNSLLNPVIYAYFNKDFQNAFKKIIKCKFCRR
Method: Preparation of 5HT1A Membrane
Rats were decapitated on ice. […] Incubation at 37° C. was conducted for 10 min. […] Centrifugation was conducted at 12000 rpm, 4° C. for 20 min. […] Centrifugation was conducted and repeated 3 times.
Materials for the Receptor Binding Assay

mice of Kunming breed = test: Apomorphine induced clambering assay of mice; type: in vivo; conditions: Mus musculus; mice, po; apomorphine 1 mg/kg sc 1 hour after administration; read-out: Apomorphine induced clambering (ED50, po, mg/kg)
Method: Healthy mice of Kunming breed (KM) (male, with body weight of 18-22 g) were provided by Qinglongshan Animal Cultivation Center, Nanjing.
Apomorphine provided by Sigma Company was dissolved in 0.9% NaCl (containing 0.1% vitamin C) before use, and was freshly formulated before use.
Vitamin C, F20061113, was provided by Sinopharm Chemical Reagent Co. Ltd.
Sodium chloride injection, H32026305, was provided by Xuzhou No. 5 Pharmaceutical Factory Co. Ltd.
Instruments: self-made clambering cage, chronograph.
Procedures: apomorphine induced clambering assay of mice
After 5 min of adaptation, the behavior of the mice at 10-11, 20-21, and 30-31 min after the injection of apomorphine were observed and scored. Scoring criteria: the behavior of 4 paws on the floor was scored as 0; the behavior of 2 forepaws on the cage was scored as 1; and the behavior of 4 paws on the cage was scored as 2.

Structure (SMILES)	affinity with 5HT1A (in words) (5HT1A receptor)	inhibition at 10 µM (5HT1A receptor) [%]	ED50 (mice of Kunming breed) [mg/kg]
O=C(CCCN1CCC(c2noc3cc(F)ccc23)CC1)c1cc2c3c(c1)CCC(=O)N3CCC2 [Compound 5]	high affinities	99.8	1.31
O=C(CCN1CCC(c2noc3cc(F)ccc23)CC1)c1cc2c3c(c1)CCN3C(=O)CC2 [Compound 12]	high affinities	96.5	0.076
